#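 Cells were grown in 96-well plates and exposed to each compound for 48 hours at five concentrations; endpoints were interpolated linearly between bracketing concentrations, or set to the highest concentration if not reached. The concentration for full growth arrest is given as TGI.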
# Key:
# Experiment in all cases: NCI tumour cell line growth inhibition, 48 h
# NCI-H522 lung = tested on: NCI-H522 lung
# MOLT-4 leukemia = tested on: MOLT-4 leukemia
# DMS 273 small cell lung = tested on: DMS 273 small cell lung
# OVCAR-5 ovarian = tested on: OVCAR-5 ovarian
# SR leukemia = tested on: SR leukemia
# DMS 114 small cell lung = tested on: DMS 114 small cell lung
# HOP-62 NSCLC = tested on: HOP-62 NSCLC
# HCC-2998 colon = tested on: HCC-2998 colon
# SNB-78 CNS = tested on: SNB-78 CNS
# PC-3 prostate = tested on: PC-3 prostate
SMILES,TGI (NCI-H522 lung),TGI (MOLT-4 leukemia),TGI (DMS 273 small cell lung),TGI (OVCAR-5 ovarian),TGI (SR leukemia),TGI (DMS 114 small cell lung),TGI (HOP-62 NSCLC),TGI (HCC-2998 colon),TGI (SNB-78 CNS),TGI (PC-3 prostate)
CCOC(=O)[C@H]1Nc2ccc(C)cc2C2c3ccccc3CC21 (some centres undefined),> 100 µM,> 100 µM,> 100 µM,> 100 µM,> 100 µM,> 100 µM,> 100 µM,> 100 µM,> 100 µM,
N#Cc1cnsc1,,> 100 µM,> 100 µM,> 100 µM,> 100 µM,> 100 µM,> 100 µM,> 100 µM,> 100 µM,
O=C(/C=C/c1ccccc1Cl)c1ccccc1Cl,38.1 µM,60 µM,31.1 µM,46.4 µM,,34.8 µM,> 100 µM,39.1 µM,69.2 µM,
COC(=O)CSc1n[nH]c(-c2ccc(O)c([N+](=O)[O-])c2)n1,,> 100 µM,> 100 µM,> 100 µM,> 100 µM,,,> 100 µM,,
CCN(CC)C(=O)C/C(C)=N/NC(=O)c1ccncc1,> 100 µM,> 100 µM,> 100 µM,> 100 µM,,> 100 µM,> 100 µM,> 100 µM,> 100 µM,
COC(=O)C(=O)C(C(=O)C(=O)Nc1ccc(C)cc1C)c1nc2ccccc2[nH]c1=O (centres undefined),93 µM,> 100 µM,,> 100 µM,> 100 µM,,> 100 µM,> 100 µM,> 100 µM,
COc1ccc(C(=O)O)c(Cc2cccc3ccccc23)c1,> 100 µM,> 100 µM,> 100 µM,> 100 µM,> 100 µM,> 100 µM,> 100 µM,> 100 µM,,
C#CC[C@]12CC(=O)CC[C@H]1CC(=O)C2,> 100 µM,> 100 µM,> 100 µM,,> 100 µM,,> 100 µM,> 100 µM,> 100 µM,
CC(=O)SCCC1c2[nH]c3ccccc3c2CCN1O (centres undefined),> 100 µM,> 100 µM,> 100 µM,> 100 µM,,> 100 µM,> 100 µM,> 100 µM,,
CN(C)C(=S)SN(C)C(=O)Nc1ccccc1,3.5 µM,85.8 µM,77.6 µM,> 76 µM,72.3 µM,27.4 µM,> 100 µM,> 62.9 µM,> 100 µM,> 100 µM
O=C(NC1CCCCCC1)C1C(=O)N(C2CCCCCC2)C(=O)/C1=N\O (centres undefined),45 µM,57.3 µM,,> 100 µM,54 µM,84.5 µM,36.5 µM,40.2 µM,> 100 µM,
O=C(CC(=O)N1N=C(c2ccccc2)C(N=Nc2ccc(Cl)cc2)C1=O)Nc1ccccc1Cl (centres undefined),> 100 µM,> 100 µM,> 100 µM,> 100 µM,> 100 µM,> 100 µM,40.6 µM,> 100 µM,> 100 µM,
Cc1ccc(C(=O)/C=C/c2ccccc2O)c(C)c1,> 100 µM,> 100 µM,> 100 µM,> 100 µM,,> 100 µM,> 100 µM,> 100 µM,> 100 µM,
CCc1cccc(C)c1NC(C)=O,,> 100 µM,> 100 µM,> 100 µM,,> 100 µM,> 100 µM,> 100 µM,> 100 µM,
Nc1c(-c2ccc(Br)cc2)[n+]([O-])c2ccccc2[n+]1[O-],> 100 µM,> 100 µM,> 100 µM,> 100 µM,,> 100 µM,> 100 µM,,> 100 µM,
COC(=O)C1=C(c2ccc3c(c2)OCO3)O[C@H](c2ccc3c(c2)OCO3)[C@H]1COC(C)=O,,> 100 µM,> 100 µM,> 100 µM,> 100 µM,> 100 µM,> 100 µM,> 100 µM,> 100 µM,
NC1C2(CCCCCC2)NC(=O)C12CCCCCC2 (centres undefined),> 100 µM,> 100 µM,> 100 µM,> 100 µM,> 100 µM,> 100 µM,> 100 µM,,> 100 µM,
NCCCNCCSSCCCCS(=O)O,32.3 µM,47.1 µM,> 100 µM,> 100 µM,29.3 µM,> 100 µM,> 100 µM,> 100 µM,> 100 µM,
Cc1cc(NS(=O)(=O)c2ccc(NC(=O)c3cccc4c(=O)c5ccccc5[nH]c34)cc2)no1,56.6 µM,> 100 µM,,> 100 µM,80.8 µM,> 100 µM,50.6 µM,> 100 µM,> 100 µM,
N#CCCN(c1ccc(/C=C2\N=C(c3ccc(Cl)cc3)OC2=O)cc1)S(=O)(=O)c1ccccc1,> 100 µM,> 100 µM,> 100 µM,> 100 µM,> 100 µM,> 100 µM,> 100 µM,> 100 µM,,
COc1cc(Cc2cc(OC)c(OC)c(OC)c2)ccc1O,39.5 µM,> 100 µM,,> 100 µM,> 100 µM,> 100 µM,> 100 µM,> 100 µM,> 100 µM,
Cc1ccc(NC(=O)C2C(=O)N(c3ccc(C)c(C)c3)C(=O)/C2=N/O)cc1C (centres undefined),> 100 µM,> 100 µM,> 100 µM,> 100 µM,,> 100 µM,> 100 µM,> 100 µM,> 100 µM,
O=c1[nH]c(=O)n(C2CC(O)C(CS)O2)cc1F (centres undefined),> 100 µM,> 100 µM,,> 100 µM,> 100 µM,> 100 µM,> 93.8 µM,> 100 µM,> 100 µM,> 100 µM
Cc1ccc(N=NC(C(=O)c2ccccc2)C(=O)c2ccccc2)cc1,44.3 µM,63 µM,58.8 µM,58 µM,,54.7 µM,71.9 µM,> 100 µM,,

# — PubChem BioAssay (NCI)
